# From patent USRE50724E1, “4-membered ring carboxamides used as nematicides” (SYNGENTA CROP PROTECTION AG, priority 2013, dated 2026)
# Test system: Meloidogyne spp.
# Test: Meloidogyne spp. (root-knot nematode), nematicide, contact activity, preventive: cucumber seed in filter paper pouch
# Assay type: in vivo
# Details: 288 h, cucumber cv. Toshka seed in pouch, 3000 eggs, twelve days, read-out: reduction of galling compared to the untreated control
# Protocol: Meloidogyne spp. (Root-Knot Nematode) Nematicide, Contact Activity, Preventive. Filter papers (9 cm×4.5 cm) with a small pocket were placed into plastic pouches (12 cm×6 cm). One cucumber cv. Toshka seed was placed in the centre of the filter paper pocket of all the pouches needed for a test. The cucumber seeds in the pouches were treated with test solutions at 200 ppm by pipetting the solution directly over the cucumber seed in the filter paper pocket in the pouch. Prior to application, the compound solution was prepared at twice the concentration required and the egg suspension is prepared with FORL nutrient solution with 3000 eggs/0.5 ml. After applying all the treatments, 3000 eggs (in 0.5 ml of FORL nutrient solution) were pipetted into the pouches. The pouches were incubated in a moist chamber for twelve days and watered regularly to maintain good filter paper moisture essential for the growing cucumber root system. After this period, the filter paper containing the germinated cucumber seedling was removed from the plastic pouch to assess the number of galls caused by Meloidogyne spp. per root system. Phytotoxicity was measured as a reduction of growth of the emerged cucumber seedling in comparison to the control.
row,SMILES,pest or weed control at 200 ppm [%]
1,"Cc1ncccc1C(=O)N[C@H]1CC[C@H]1c1ccc(Cl)cc1Cl [Compound 61.7, N-[(1S,2S)-2-(2,4-dichlorophenyl)cyclobutyl]-2-methylpyridine-3-carboxamide]",> 80
2,"O=C(N[C@H]1CC[C@H]1c1ccc(Cl)cc1Cl)c1ccccc1Br [Compound 61.8, 2-bromo-N-[(1S,2S)-2-(2,4-dichlorophenyl)cyclobutyl]benzamide]",> 80
3,"O=C(N[C@H]1CC[C@H]1c1ccc(Cl)cc1)c1c(F)cccc1C(F)(F)F [Compound 61.41, N-[(1S,2S)-2-(4-chlorophenyl)cyclobutyl]-2-fluoro-6-(trifluoromethyl)benzamide]",> 80
4,"O=C(N[C@H]1CC[C@H]1c1ccc(Cl)cc1Cl)c1ncccc1Br [Compound 61.60, 3-bromo-N-[(1S,2S)-2-(2,4-dichlorophenyl)cyclobutyl]pyridine-2-carboxamide]",> 80

# Test system: Heterodera schachtii
# Test: Heterodera schachtii (sugar beet cyst nematode), nematicide, contact activity: juvenile paralysis in 16-well assay plates
# Assay type: in vivo
# Details: 200 ppm, approx. 500 juveniles per well, 24 hours incubation at 25° C. in darkness, read-out: nematode immobilization compared to the untreated control
# Protocol: Heterodera schachtii (Sugar Beet Cyst Nematode), Nematicide, Contact Activity
# The tested application rate of each compound was 200 ppm. All solutions were brought to a concentration of 400 ppm, respectively, as they were subsequently diluted by adding the equivalent amount of water containing juvenile nematodes. After preparation of the suspensions, 1 ml of each suspension and concentration was transferred to 16-well assay plates with a total of three replicates per treatment. Approximately 500 juveniles of Heterodera schachtii were added in 1 ml of water to each well. Nematodes in water served as controls. The plates were placed in a dark box and stored at room temperature. Nematode paralysis was determined after 24 hours incubation at 25° C. in darkness.
row,SMILES,pest or weed control at 200 ppm [%]
1,"Cc1ncccc1C(=O)N[C@H]1CC[C@H]1c1ccc(Cl)cc1Cl [Compound 61.7, N-[(1S,2S)-2-(2,4-dichlorophenyl)cyclobutyl]-2-methylpyridine-3-carboxamide]",> 75
2,"O=C(N[C@H]1CC[C@H]1c1ccc(Cl)cc1Cl)c1ccccc1Br [Compound 61.8, 2-bromo-N-[(1S,2S)-2-(2,4-dichlorophenyl)cyclobutyl]benzamide]",> 75
3,"O=C(N[C@H]1CC[C@H]1c1ccc(Cl)cc1)c1c(F)cccc1C(F)(F)F [Compound 61.41, N-[(1S,2S)-2-(4-chlorophenyl)cyclobutyl]-2-fluoro-6-(trifluoromethyl)benzamide]",> 75
4,"O=C(N[C@H]1CC[C@H]1c1ccc(Cl)cc1Cl)c1ncccc1Br [Compound 61.60, 3-bromo-N-[(1S,2S)-2-(2,4-dichlorophenyl)cyclobutyl]pyridine-2-carboxamide]",> 75
5,"O=C(N[C@H]1CC[C@H]1c1ccc(Cl)cc1Cl)c1ccsc1C(F)(F)F [Compound 61.97, N-[(1S,2S)-2-(2,4-dichlorophenyl)cyclobutyl]-2-(trifluoromethyl)thiophene-3-carboxamide]",> 75
6,"O=C(N[C@H]1CC[C@H]1c1ccc(Cl)cc1Cl)c1ncsc1Br [Compound 61.98, 5-bromo-N-[(1S,2S)-2-(2,4-dichlorophenyl)cyclobutyl]-1,3-thiazole-4-carboxamide]",> 75
7,"Cc1cccnc1C(=O)N[C@H]1CC[C@H]1c1ccc(F)cc1F [Compound 61.108, N-[(1S,2S)-2-(2,4-difluorophenyl)cyclobutyl]-3-methylpyridine-2-carboxamide]",> 75
8,"Cc1ccccc1C(=O)N[C@H]1CC[C@H]1c1ccc(F)cc1F [Compound 61.109, N-[(1S,2S)-2-(2,4-difluorophenyl)cyclobutyl]-2-methylbenzamide]",> 75
9,"O=C(N[C@H]1CC[C@H]1c1ccc(F)cc1F)c1ncccn1 [Compound 61.110, N-[(1S,2S)-2-(2,4-difluorophenyl)cyclobutyl]pyrimidine-2-carboxamide]",> 75
10,"O=C(N[C@H]1CC[C@H]1c1ccc(F)cc1F)c1ccccc1Cl [Compound 61.113, 2-chloro-N-[(1S,2S)-2-(2,4-difluorophenyl)cyclobutyl]benzamide]",> 75
11,"O=C(N[C@H]1CC[C@H]1c1ccc(F)cc1F)c1cnccc1C(F)(F)F [Compound 61.114, N-[(1S,2S)-2-(2,4-difluorophenyl)cyclobutyl]-4-(trifluoromethyl)pyridine-3-carboxamide]",> 75
12,"O=C(N[C@H]1CC[C@H]1c1ccc(F)cc1F)c1ccccc1Br [Compound 61.116, 2-bromo-N-[(1S,2S)-2-(2,4-difluorophenyl)cyclobutyl]benzamide]",> 75
13,"O=C(N[C@H]1CC[C@H]1c1ccc(F)cc1F)c1c(F)cccc1Cl [Compound 61.117, 2-chloro-N-[(1S,2S)-2-(2,4-difluorophenyl)cyclobutyl]-6-fluorobenzamide]",> 75
14,"Cc1cccc(F)c1C(=O)N[C@H]1CC[C@H]1c1ccc(F)cc1F [Compound 61.118, N-[(1S,2S)-2-(2,4-difluorophenyl)cyclobutyl]-2-fluoro-6-methylbenzamide]",> 75
15,"Cc1nccnc1C(=O)N[C@H]1CC[C@H]1c1ccc(F)cc1F [Compound 61.119, N-[(1S,2S)-2-(2,4-difluorophenyl)cyclobutyl]-3-methylpyrazine-2-carboxamide]",> 75
16,"O=C(N[C@H]1CC[C@H]1c1ccc(F)cc1F)c1ccccc1F [Compound 61.121, N-[(1S,2S)-2-(2,4-difluorophenyl)cyclobutyl]-2-fluorobenzamide]",> 75
17,"O=C(N[C@H]1CC[C@H]1c1ccc(F)cc1F)c1cncnc1C(F)(F)F [Compound 61.122, N-[(1S,2S)-2-(2,4-difluorophenyl)cyclobutyl]-4-(trifluoromethyl)pyrimidine-5-carboxamide]",> 75
18,"O=C(N[C@H]1CC[C@H]1c1ccc(F)cc1F)c1ncccc1F [Compound 61.124, N-[(1S,2S)-2-(2,4-difluorophenyl)cyclobutyl]-3-fluoropyridine-2-carboxamide]",> 75

row,SMILES,pest or weed control at 200 ppm [%]
1,"O=C(N[C@H]1CC[C@H]1c1ccc(F)cc1F)c1ccccc1I [Compound 61.125, N-[(1S,2S)-2-(2,4-difluorophenyl)cyclobutyl]-2-iodobenzamide]",> 75
2,"Cn1cccc1C(=O)N[C@H]1CC[C@H]1c1ccc(F)cc1F [Compound 61.126, N-[(1S,2S)-2-(2,4-difluorophenyl)cyclobutyl]-1-methylpyrrole-2-carboxamide]",> 75
3,"Cn1cc(C(=O)N[C@H]2CC[C@H]2c2ccc(F)cc2F)c(C(F)F)n1 [Compound 61.127, 3-(difluoromethyl)-N-[(1S,2S)-2-(2,4-difluorophenyl)cyclobutyl]-1-methylpyrazole-4-carboxamide]",> 75
4,"O=C(N[C@H]1CC[C@H]1c1ccc(F)cc1F)c1sccc1Cl [Compound 61.129, 3-chloro-N-[(1S,2S)-2-(2,4-difluorophenyl)cyclobutyl]thiophene-2-carboxamide]",> 75
5,"O=C(N[C@H]1CC[C@H]1c1ccc(F)cc1F)c1c(F)cccc1C(F)(F)F [Compound 61.131, N-[(1S,2S)-2-(2,4-difluorophenyl)cyclobutyl]-2-fluoro-6-(trifluoromethyl)benzamide]",> 75
6,"O=C(N[C@H]1CC[C@H]1c1ccc(F)cc1F)c1cccnc1Cl [Compound 61.133, 2-chloro-N-[(1S,2S)-2-(2,4-difluorophenyl)cyclobutyl]pyridine-3-carboxamide]",> 75
7,"O=C(N[C@H]1CC[C@H]1c1ccc(F)cc1F)c1ncsc1Br [Compound 61.136, 5-bromo-N-[(1S,2S)-2-(2,4-difluorophenyl)cyclobutyl]-1,3-thiazole-4-carboxamide]",> 75
8,"O=C(N[C@H]1CC[C@H]1c1ccc(F)cc1F)c1ccsc1C(F)(F)F [Compound 61.137, N-[(1S,2S)-2-(2,4-difluorophenyl)cyclobutyl]-2-(trifluoromethyl)thiophene-3-carboxamide]",> 75
9,"Cc1ncccc1C(=O)N[C@H]1CC[C@H]1c1ccc(F)cc1F [Compound 61.140, N-[(1S,2S)-2-(2,4-difluorophenyl)cyclobutyl]-2-methylpyridine-3-carboxamide]",> 75
10,"O=C(N[C@H]1CC[C@H]1c1ccc(F)cc1F)c1ncccc1Cl [Compound 61.141, 3-chloro-N-[(1S,2S)-2-(2,4-difluorophenyl)cyclobutyl]pyridine-2-carboxamide]",> 75
11,"O=C(N[C@H]1CC[C@H]1c1ccc(F)cc1F)c1sccc1Br [Compound 61.143, 3-bromo-N-[(1S,2S)-2-(2,4-difluorophenyl)cyclobutyl]thiophene-2-carboxamide]",> 75
12,"Cc1occc1C(=O)N[C@H]1CC[C@H]1c1ccc(F)cc1F [Compound 61.144, N-[(1S,2S)-2-(2,4-difluorophenyl)cyclobutyl]-2-methylfuran-3-carboxamide]",> 75
13,"O=C(N[C@H]1CC[C@H]1c1ccc(F)cc1F)c1ncccc1Br [Compound 61.146, 3-bromo-N-[(1S,2S)-2-(2,4-difluorophenyl)cyclobutyl]pyridine-2-carboxamide]",> 75
14,"O=C(N[C@H]1CC[C@H]1c1ccc(F)cc1F)c1ncccc1C(F)(F)F [Compound 61.151, N-[(1S,2S)-2-(2,4-difluorophenyl)cyclobutyl]-3-(trifluoromethyl)pyridine-2-carboxamide]",> 75
15,"O=C(N[C@H]1CC[C@H]1c1ccc(Cl)cc1Cl)c1nccnc1Br [Compound 61.162, 3-bromo-N-[(1S,2S)-2-(2,4-dichlorophenyl)cyclobutyl]pyrazine-2-carboxamide]",> 75
16,"O=C(N[C@H]1CC[C@H]1c1ccc(Cl)cc1Cl)c1nnccc1C(F)(F)F [Compound 61.167, N-[(1S,2S)-2-(2,4-dichlorophenyl)cyclobutyl]-4-(trifluoromethyl)pyridazine-3-carboxamide]",> 75
17,"O=C(N[C@H]1CC[C@H]1c1ccc(Cl)cc1Cl)c1ccoc1Br [Compound 61.173, 2-bromo-N-[(1S,2S)-2-(2,4-dichlorophenyl)cyclobutyl]furan-3-carboxamide]",> 75
18,"O=C(N[C@H]1CC[C@H]1c1ccc(Cl)cc1Cl)c1ccoc1C(F)(F)F [Compound 61.174, N-[(1S,2S)-2-(2,4-dichlorophenyl)cyclobutyl]-2-(trifluoromethyl)furan-3-carboxamide]",> 75
